# Measurements from ChEMBL document CHEMBL1151757, “Synthesis, radiosynthesis, and biological evaluation of fluorine-18-labeled 2beta-carbo(fluoroalkoxy)-3beta-(3'-((Z)-2-haloethenyl)phenyl)nortropanes: candidate radioligands for in vivo imaging of the serotonin transporter with positron emission tomography” (J Med Chem, 2008).
# What was measured:
# [1] = test system: Pons; assay: Drug uptake in anesthetized cynomolgus monkey brain pons after 27.5 mins postinjection; type: ADME, organism-based, Macaca fascicularis; conditions: in vivo
# [2] = test system: Caudate; assay: Drug uptake in anesthetized cynomolgus monkey brain caudate after 135 mins postinjection; type: ADME, organism-based, Macaca fascicularis, Caudate nucleus; conditions: in vivo, 2.25 h
# [3] = Ratio of drug uptake in frontal lobe to cerebellum in anesthetized cynomolgus monkey after 95 mins postinjection; type: ADME, organism-based, Macaca fascicularis; conditions: in vivo
# [4] = test system: Medulla; assay: Drug uptake in anesthetized cynomolgus monkey brain medulla after 35 mins postinjection; type: ADME, organism-based, Macaca fascicularis; conditions: in vivo
# [5] = test system: Putamen; assay: Drug uptake in anesthetized cynomolgus monkey brain putamen after 155 mins postinjection; type: ADME, organism-based, Macaca fascicularis; conditions: in vivo
# [6] = Drug uptake in anesthetized cynomolgus monkey brain cerebellum after 6.5 mins postinjection; type: ADME, organism-based, Macaca fascicularis; conditions: in vivo
# [7] = test system: Putamen; assay: Drug uptake in anesthetized cynomolgus monkey brain putamen after 115 mins postinjection; type: ADME, organism-based, Macaca fascicularis; set-up: unit not given here; conditions: in vivo
# [8] = test system: Medulla; assay: Drug uptake in anesthetized cynomolgus monkey brain medulla after 175 mins postinjection; type: ADME, organism-based, Macaca fascicularis; conditions: in vivo
# [9] = test system: Thalamus; assay: Drug uptake in anesthetized cynomolgus monkey brain thalamus after 65 mins postinjection; type: ADME, organism-based, Macaca fascicularis; set-up: unit not given here; conditions: in vivo
# [10] = test system: Pons; assay: Drug uptake in anesthetized cynomolgus monkey brain pons after 85 mins postinjection; type: ADME, organism-based, Macaca fascicularis; conditions: in vivo
# [11] = test system: Caudate; assay: Drug uptake in anesthetized cynomolgus monkey brain caudate after 65 mins postinjection; type: ADME, organism-based, Macaca fascicularis, Caudate nucleus; conditions: in vivo
# [12] = test system: Caudate; assay: Drug uptake in anesthetized cynomolgus monkey brain caudate after 12.5 mins postinjection; type: ADME, organism-based, Macaca fascicularis, Caudate nucleus; conditions: in vivo
# [13] = Ratio of drug uptake in frontal lobe to cerebellum in anesthetized cynomolgus monkey after 3.5 mins postinjection; type: ADME, organism-based, Macaca fascicularis; conditions: in vivo
# [14] = test system: Caudate; assay: Drug uptake in anesthetized cynomolgus monkey brain caudate after 22.5 mins postinjection; type: ADME, organism-based, Macaca fascicularis, Caudate nucleus; conditions: in vivo, 0.375 h
# [15] = test system: Pons; assay: Drug uptake in anesthetized cynomolgus monkey brain pons after 175 mins postinjection; type: ADME, organism-based, Macaca fascicularis; conditions: in vivo
# [16] = Drug uptake in anesthetized cynomolgus monkey brain occipital lobe after 155 mins postinjection; type: ADME, organism-based, Macaca fascicularis; conditions: in vivo
# [17] = test system: Caudate; assay: Drug uptake in anesthetized cynomolgus monkey brain caudate after 0.5 mins postinjection; type: ADME, organism-based, Macaca fascicularis, Caudate nucleus; conditions: in vivo
# [18] = test system: Midbrain; assay: Drug uptake in anesthetized cynomolgus monkey brain midbrain after 175 mins postinjection; type: ADME, organism-based, Macaca fascicularis; conditions: in vivo
# [19] = test system: Pons; assay: Drug uptake in anesthetized cynomolgus monkey brain pons after 6.5 mins postinjection; type: ADME, organism-based, Macaca fascicularis; conditions: in vivo
# [20] = test system: Midbrain; assay: Drug uptake in anesthetized cynomolgus monkey brain midbrain after 95 mins postinjection; type: ADME, organism-based, Macaca fascicularis; set-up: unit not given here; conditions: in vivo
# [21] = Ratio of drug uptake in pons to cerebellum in anesthetized cynomolgus monkey after 145 mins postinjection; type: ADME, organism-based, Macaca fascicularis; conditions: in vivo
# [22] = test system: Putamen; assay: Drug uptake in anesthetized cynomolgus monkey brain putamen after 12.5 mins postinjection; type: ADME, organism-based, Macaca fascicularis; set-up: unit not given here; conditions: in vivo
# [23] = test system: Medulla; assay: Drug uptake in anesthetized cynomolgus monkey brain medulla after 4.5 mins postinjection; type: ADME, organism-based, Macaca fascicularis; conditions: in vivo, 0.075 h
# [24] = test system: Midbrain; assay: Drug uptake in anesthetized cynomolgus monkey brain midbrain after 15.5 mins postinjection; type: ADME, organism-based, Macaca fascicularis; set-up: unit not given here; conditions: in vivo
# [25] = Ratio of drug uptake in putamen to cerebellum in anesthetized cynomolgus monkey after 9.5 mins postinjection; type: ADME, organism-based, Macaca fascicularis; conditions: in vivo
# [26] = test system: Medulla; assay: Drug uptake in anesthetized cynomolgus monkey brain medulla after 145 mins postinjection; type: ADME, organism-based, Macaca fascicularis; conditions: in vivo
# [27] = test system: Putamen; assay: Drug uptake in anesthetized cynomolgus monkey brain putamen after 15.5 mins postinjection; type: ADME, organism-based, Macaca fascicularis; set-up: unit not given here; conditions: in vivo
# [28] = test system: Midbrain; assay: Drug uptake in anesthetized cynomolgus monkey brain midbrain after 0.5 mins postinjection; type: ADME, organism-based, Macaca fascicularis; set-up: unit not given here; conditions: in vivo
# [29] = test system: Midbrain; assay: Drug uptake in anesthetized cynomolgus monkey brain midbrain after 225 mins postinjection; type: ADME, organism-based, Macaca fascicularis; conditions: in vivo, 3.75 h
# [30] = test system: Midbrain; assay: Drug uptake in anesthetized cynomolgus monkey brain midbrain after 2.5 mins postinjection; type: ADME, organism-based, Macaca fascicularis; set-up: unit not given here; conditions: in vivo
# [31] = test system: Putamen; assay: Drug uptake in anesthetized cynomolgus monkey brain putamen after 45 mins postinjection; type: ADME, organism-based, Macaca fascicularis; set-up: unit not given here; conditions: in vivo, 0.75 h
# [32] = test system: Midbrain; assay: Drug uptake in anesthetized cynomolgus monkey brain midbrain after 4.5 mins postinjection; type: ADME, organism-based, Macaca fascicularis; set-up: unit not given here; conditions: in vivo, 0.075 h
# [33] = Ratio of drug uptake in medulla to cerebellum in anesthetized cynomolgus monkey after 12.5 mins postinjection; type: ADME, organism-based, Macaca fascicularis; conditions: in vivo
# [34] = Drug uptake in anesthetized cynomolgus monkey brain frontal lobe after 225 mins postinjection; type: ADME, organism-based, Macaca fascicularis; conditions: in vivo, 3.75 h
# [35] = Drug uptake in anesthetized cynomolgus monkey brain frontal lobe after 65 mins postinjection; type: ADME, organism-based, Macaca fascicularis; conditions: in vivo
# [36] = test system: Putamen; assay: Drug uptake in anesthetized cynomolgus monkey brain putamen after 175 mins postinjection; type: ADME, organism-based, Macaca fascicularis; conditions: in vivo
# [37] = Drug uptake in anesthetized cynomolgus monkey brain frontal lobe after 2.5 mins postinjection; type: ADME, organism-based, Macaca fascicularis; conditions: in vivo
smiles,measurement,setting,value
O=C(OCC[18F])C1C2CCC(CC1c1cccc(/C=C\I)c1)N2 (configuration not stated),Drug uptake,[1],3.21
same,Drug uptake,[2],2.87
same,Ratio,[3],1
same,Drug uptake,[4],4.05
same,Drug uptake,[5],3.13
same,Drug uptake,[6],2.98
same,Drug uptake,[7],3.74
same,Drug uptake,[8],2.78
same,Drug uptake,[9],4.26
same,Drug uptake,[10],3.13
same,Drug uptake,[11],3.67
same,Drug uptake,[12],2.74
same,Ratio,[13],0.6
same,Drug uptake,[14],3.32
same,Drug uptake,[15],2.36
same,Drug uptake,[16],1.63
same,Drug uptake,[17],0
same,Drug uptake,[18],3.46
same,Drug uptake,[19],2.02
same,Drug uptake,[20],4.55
same,Ratio,[21],1.4
same,Drug uptake,[22],3.33
same,Drug uptake,[23],1.8
same,Drug uptake,[24],4.07
same,Ratio,[25],0.9
same,Drug uptake,[26],3.04
same,Drug uptake,[27],3.61
same,Drug uptake,[28],0
same,Drug uptake,[29],2.99
same,Drug uptake,[30],0.54
same,Drug uptake,[31],4.41
same,Drug uptake,[32],1.87
same,Ratio,[33],0.9
same,Drug uptake,[34],1.45
same,Drug uptake,[35],2.78
same,Drug uptake,[36],2.93
same,Drug uptake,[37],0.28
